pKi: −log10 of the molar value.
Molecular target: E. coli MurA (Escherichia coli, UniProt P0A749)
Experiment: MurA activity/inhibition assay (phosphate release coupled to PNPase cleavage of fluorescent 7-methylguanosine)
Type: biochemical
Text: • (a) MurA performs the first step of UDP-muramic acid biosynthesis. After sequential binding of UNAG and phosphoenolpyruvate, a tetrahedral intermediate is formed that yields enolpyruvyl-UNAG after cleavage of inorganic phosphate. UNAG-3P most likely mimics this tetrahedral intermediate and thereby inhibits MurA catalysis by a competitive binding mechanism. (b) Determination of the Ki of UNAG-3P for MurA. Enolpyruvyl-UNAG formation catalyzed by MurA from E. coli in presence of PEP and UNAG-3P and varying UNAG concentrations under steady state conditions. MurA enzyme kinetics were followed by coupling the reaction to phosphate dependent cleavage of fluorescent 7-methylguanosine by nucleoside phosphorylase resulting in a strong decrease of the fluorescence at 400 nm (λexc = 300 nm). The UNAG-3P concentrations for each saturation curve were 0 µM (●), 15 µM (□) and 30 µM (Δ). A Lineweaver-Burk plot is shown as inset.
The enolpyruvyl activity of E. coli MurA was monitored by coupling phosphate release to cleavage of fluorescent 7-methylguanosine (Sigma) by bacterial purine-nucleoside phosphorylase (PNPase) (Sigma). […] The reactions were monitored by the decrease in fluorescence at 400 nm with excitation set to 300 nm in a FluoroMax-3 spectrofluorometer (HORIBA Jobin Yvon) with excitation and emission bandwidths of 5 nm. […]

Chain of E. coli MurA (P0A749 whole entry): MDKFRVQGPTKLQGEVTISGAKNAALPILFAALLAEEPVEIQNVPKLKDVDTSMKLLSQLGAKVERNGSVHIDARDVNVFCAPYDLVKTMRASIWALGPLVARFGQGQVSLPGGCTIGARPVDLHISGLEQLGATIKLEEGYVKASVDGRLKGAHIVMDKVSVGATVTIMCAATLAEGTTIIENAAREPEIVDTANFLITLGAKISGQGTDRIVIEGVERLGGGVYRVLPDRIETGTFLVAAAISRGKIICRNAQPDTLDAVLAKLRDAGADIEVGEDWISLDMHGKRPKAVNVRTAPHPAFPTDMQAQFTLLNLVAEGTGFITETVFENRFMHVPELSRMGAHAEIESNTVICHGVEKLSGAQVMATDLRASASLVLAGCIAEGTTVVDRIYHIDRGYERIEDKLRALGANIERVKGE

Compound `CC(=O)N[C@H]1[C@@H](OP(=O)(O)OP(=O)(O)OC[C@H]2O[C@@H](n3ccc(=O)[nH]c3=O)[C@H](O)[C@@H]2O)O[C@H](CO)[C@@H](O)[C@@H]1OP(=O)(O)O` [UNAG-3P, Uridinediphosphate-2-N-acetyl-3-phosphate-glucosamine] has a pKi of 5.15.
